In PubChem BioAssay (NCI) one finds TGI data, which are given here for eleven molecules.

For orientation: TGI means the concentration at which net growth stops. Lower therefore signals more potent growth arrest.

What all share (test): DTP human tumour cell line panel, 48 h
In assay [1] the test system is SF-539 CNS.
Assay [2] relates to HCT-15 colon.
The subject of assay [3] is NCI-H226 lung.
The test system of assay [4] is A549 NSCLC.
In assay [5] the test system is SW-620 colon.
Assay [6] has as its system LOX IMVI melanoma.
Assay [7] relates to KM12 colon.
The subject of assay [8] is EKVX NSCLC.
Assay [9] concerns IGROV1 ovarian.
Assay [10] relates to SN12C renal.
For assay [11], the system named is HOP-92 NSCLC.
Assay [12] relates to U251 CNS.
Assay [13] has as its system HOP-62 NSCLC.
Assay [14] deals with PC-3 prostate.
For assay [15], the system named is HS 578T breast.
Assay [16] relates to RPMI-8226 leukemia.
Assay [17] concerns MDA-MB-435.

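96-well plates; 48 h exposure; 5 concentrations. Endpoints by linear interpolation between flanking doses. Not reached: highest tested concentration assigned. The concentration for full growth arrest is given as TGI.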

As for `Cc1cc(C)n2c(-c3ccccc3)c(C)cc2n1`, the TGI in [1] was 73.4 µM; in assay [2], above 100 µM; in [3], above 100 µM; in assay [4], above 100 µM; in assay [5] it was above 100 µM; in [6], above 100 µM. The TGI in [7], in assay [8], in assay [9], in assay [10], in assay [11] and in [12] was above 100 µM each time. Also, the TGI in [13] was above 100 µM.
Turning to `CSc1cc(Br)ccc1-n1c(C(=O)c2ccccc2)c(SC)n(-c2ccccc2)c1=O`, the TGI in assay [14], in assay [1], in [2], in assay [3], in [4] and in assay [5] was above 100 µM each time. In addition, the TGI in assay [6], in assay [7], in assay [8], in assay [9], in assay [15] and in assay [10] was above 100 µM each time. Also, the TGI in [11], in [12] and in [13] was above 100 µM throughout.
For `COc1ccc(N2C(=O)c3c(c4[nH]c5ccc(OC)cc5c4c4ccc(C(C)(C)C)cc34)C2=O)cc1`, the TGI in assay [1], in assay [2], in assay [3], in assay [4], in [7] and in [8] was above 100 µM throughout. Also, the TGI in assay [9], in assay [10], in assay [11], in assay [12], in [13] and in assay [16] was above 100 µM each time.
Consider `C[C@H](NC(=O)n1c2ccccc2c2ccccc21)C(=O)O`, for which the TGI in assay [1], in assay [2], in [3], in [4], in [5] and in [6] was above 100 µM throughout. Moreover, the TGI in [7], in [8], in [9], in assay [10], in assay [11] and in [12] was above 100 µM each time. In addition, the TGI in assay [13] and in assay [16] was above 100 µM in each case.
Turning to `O=c1c(C2=NCCC2)c(-c2ccc[nH]2)[nH]n1-c1ccccc1`, the TGI in assay [14], in [1], in assay [2], in assay [3], in [4] and in assay [5] was above 100 µM each time. The TGI in assay [6], in assay [7], in [8], in [17], in [10] and in [11] was above 100 µM throughout. Also, the TGI in [12] and in assay [16] was above 100 µM in each case.
Take `Cc1ccc2c(c1)C1C(CO2)C(c2ccccc2)=NN1c1ccccc1` (configuration not stated): the TGI in assay [1], in [4], in [5], in assay [6], in assay [7] and in assay [8] was above 100 µM throughout. Besides, the TGI in assay [9], in [11], in assay [12], in assay [13] and in assay [16] was above 100 µM throughout.
Consider `COC(=O)C1(C(=O)OC)N=C(C)OC1c1ccccn1` (configuration not stated), for which the TGI in assay [14], in [2], in assay [3], in assay [4], in assay [5] and in assay [6] was above 100 µM throughout. Besides, the TGI in assay [7], in assay [8], in [17], in assay [9], in assay [10] and in assay [11] was above 100 µM throughout. The TGI in assay [12], in [13] and in assay [16] was above 100 µM throughout.
As for `COC(=O)C1=CC2CC1C(S(=O)(=O)c1ccccc1)C2S(=O)(=O)c1ccccc1` (configuration not stated), the TGI in assay [2] was determined as 26.8 µM; in assay [3], 40.2 µM; in assay [4], 69.3 µM; in assay [5], 21 µM; in [6] it was 27.1 µM; in assay [9], 98.9 µM. The TGI in assay [10] was 28.8 µM; in [11] it was 29.4 µM; in assay [12] it was 35.8 µM; in [13], above 100 µM; in assay [16], 29.3 µM.
Turning to `C/C(=N\NS(=O)(=O)c1ccc(C)cc1)c1cc2ccccc2n1C`, the TGI in assay [1], in assay [2], in assay [4], in assay [5], in [6] and in assay [7] was above 100 µM in each case. Moreover, the TGI in assay [8] was above 100 µM; in assay [9], above 100 µM; in assay [10] it was 57.7 µM; in assay [12], above 100 µM; in assay [13], above 100 µM; in assay [16] it was above 100 µM.
Take `CC(=O)OC1CC2(C)OC(Cc3ccccc32)O1` (configuration not stated): the TGI in assay [1], in assay [3], in [4], in assay [5], in [6] and in assay [7] was above 100 µM throughout. Further, the TGI in assay [8], in assay [9], in [10], in assay [11], in assay [12] and in [13] was above 100 µM each time. In [16], this molecule gave a TGI above 100 µM.
Consider `c1cnc2c(c1)-n1cccc1C1(CCSC1)NN2` (configuration not stated), for which the TGI in [1], in assay [2], in assay [3], in assay [4], in [5] and in assay [6] was above 100 µM each time. The TGI in [7], in [8], in assay [10], in assay [12], in assay [13] and in assay [16] was above 100 µM throughout.
